Test results reported in ChEMBL document CHEMBL1201862, “PubChem BioAssay data set” (2004).
Values belong to the compound of their own block, whether it stands above or below them. The source made the active and inactive calls.

Tests used:
[1] = target: Voltage-gated inwardly rectifying potassium channel KCNH2 (Homo sapiens, UniProt Q12809); details: Potency;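 note: confirmatory quantitative high-throughput screen measuring inhibition of hERG channel activity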
Prothrombin = Prothrombin (Homo sapiens, UniProt P00734); assay: Thrombin 1536 HTS Dose Response Confirmation. [Related pubchem assays: 1046 (Thrombin 1536 HTS; hits were confirmed in this assay)]; format: functional
Estrogen receptor = target: T1, Estrogen receptor (Homo sapiens, UniProt P03372);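 note: potency for inhibiting coactivator peptide recruitment to the receptor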
T1 sequence (P03372 whole entry): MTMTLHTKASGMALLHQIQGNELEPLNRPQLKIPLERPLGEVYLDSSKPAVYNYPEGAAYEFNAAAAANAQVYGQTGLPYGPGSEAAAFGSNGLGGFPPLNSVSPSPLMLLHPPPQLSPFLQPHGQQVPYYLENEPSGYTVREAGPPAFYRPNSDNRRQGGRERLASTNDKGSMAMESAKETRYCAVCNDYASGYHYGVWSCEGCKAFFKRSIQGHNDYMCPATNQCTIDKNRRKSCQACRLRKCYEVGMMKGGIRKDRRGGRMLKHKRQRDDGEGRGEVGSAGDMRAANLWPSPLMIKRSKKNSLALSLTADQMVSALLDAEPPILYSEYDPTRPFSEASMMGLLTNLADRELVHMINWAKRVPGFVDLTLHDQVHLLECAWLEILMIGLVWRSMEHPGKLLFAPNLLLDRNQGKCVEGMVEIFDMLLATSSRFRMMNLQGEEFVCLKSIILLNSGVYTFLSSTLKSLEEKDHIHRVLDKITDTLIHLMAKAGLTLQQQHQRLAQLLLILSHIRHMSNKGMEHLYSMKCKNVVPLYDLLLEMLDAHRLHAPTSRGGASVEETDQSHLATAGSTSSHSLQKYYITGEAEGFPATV

[2] = growth suppression of PTEN-null colon cells, dose response, cell-based, HCT116 PTEN knockout (AID 1047); format: functional;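 note: HCT116 colon tumor cells with PTEN knocked out; cells exposed to compound for 60 hours before readout; potency for loss of cell viability measured by luminescence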
[3] = growth suppression of beta-catenin-knockout colon cells, dose response, cell-based, HCT116, human colon tumor (AID 1045); format: functional;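 note: HCT116 colon tumor cells with beta catenin knocked out; cells exposed to compound for 60 hours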
Fatty acid synthase [4] = target: T2, Fatty acid synthase (Homo sapiens, UniProt P49327); assay: FAS thioesterase domain inhibitors, dose response, biochemical, kinetic fluorescence intensity (AID 624326); format: functional;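 note: rate of fluorescence rise from hydrolysis of a fluorogenic O-methyl fluorescein ester substrate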
Fatty acid synthase [5] = target: T2, Fatty acid synthase; assay: FAS thioesterase domain inhibitors, dose response, biochemical, endpoint fluorescence intensity, uHTS hits (AID 624327); format: functional;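 note: fluorescence from hydrolysis of an O-methyl fluorescein acyl ester substrate by the enzyme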
[6] = inhibitors of intracellular T. cruzi replication, confirmation, NIH3T3 host cells, beta-gal luminescence (AID 2044); format: functional, cell-based;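 note: intracellular parasites grown in NIH/3T3 mouse fibroblasts as host cells; luminescent beta-galactosidase reporter signal from transgenic T. cruzi replicating inside host cells; inhibitors lower the luminescence signal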
HeLa = assay: HeLa cell cytotoxicity, dose response, cytotoxicity control for MITF activator project, CellTiter-Glo luminescence, cherry-pick samples (AID 540259); format: functional, cell-based; details: Homo sapiens
[7] = cytotoxicity toward NIH3T3 fibroblasts, dose response, counter-screen, cell-based, ATP luminescence, mouse fibroblasts (AID 2010); format: functional;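 note: cells exposed to compound for about 90 hours before reading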
[8] = target: T3, Heat shock factor protein 1 (Mus musculus, UniProt P38532); assay: HSF1 potentiators in luciferase reporter cells, confirmation, cell-based, NIH3T3, luminescence, dose retest (AID 435004); format: functional;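 note: stress induced by proteasome inhibitor MG132 added 30 min after compound; luciferase reporter driven by HSF1 response element in NIH3T3 cells; actives raise luminescence as potentiators of the MG132 stress response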
T3 sequence (P38532 whole entry): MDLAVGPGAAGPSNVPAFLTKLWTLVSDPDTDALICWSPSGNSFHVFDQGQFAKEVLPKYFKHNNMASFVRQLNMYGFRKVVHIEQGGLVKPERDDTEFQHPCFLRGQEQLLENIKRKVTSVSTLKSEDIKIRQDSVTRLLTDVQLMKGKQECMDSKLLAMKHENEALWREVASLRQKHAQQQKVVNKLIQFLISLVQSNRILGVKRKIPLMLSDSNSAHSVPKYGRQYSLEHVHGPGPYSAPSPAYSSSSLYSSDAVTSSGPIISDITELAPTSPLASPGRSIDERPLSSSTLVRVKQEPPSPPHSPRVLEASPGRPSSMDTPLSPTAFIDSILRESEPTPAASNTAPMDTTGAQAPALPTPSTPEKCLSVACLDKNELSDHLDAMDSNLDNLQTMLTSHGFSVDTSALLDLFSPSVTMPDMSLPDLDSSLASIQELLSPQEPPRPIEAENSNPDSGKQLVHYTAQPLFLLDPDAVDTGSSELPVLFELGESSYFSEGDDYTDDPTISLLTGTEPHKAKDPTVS

Genome polyprotein = Genome polyprotein (dengue virus type 2, UniProt P29990); assay: Dengue-2 NS5 methyltransferase inhibitors, primary screen, biochemical, confirmation dose response (AID 588689); format: functional
Chain of Genome polyprotein (P29990 2492-3391 limits assumed): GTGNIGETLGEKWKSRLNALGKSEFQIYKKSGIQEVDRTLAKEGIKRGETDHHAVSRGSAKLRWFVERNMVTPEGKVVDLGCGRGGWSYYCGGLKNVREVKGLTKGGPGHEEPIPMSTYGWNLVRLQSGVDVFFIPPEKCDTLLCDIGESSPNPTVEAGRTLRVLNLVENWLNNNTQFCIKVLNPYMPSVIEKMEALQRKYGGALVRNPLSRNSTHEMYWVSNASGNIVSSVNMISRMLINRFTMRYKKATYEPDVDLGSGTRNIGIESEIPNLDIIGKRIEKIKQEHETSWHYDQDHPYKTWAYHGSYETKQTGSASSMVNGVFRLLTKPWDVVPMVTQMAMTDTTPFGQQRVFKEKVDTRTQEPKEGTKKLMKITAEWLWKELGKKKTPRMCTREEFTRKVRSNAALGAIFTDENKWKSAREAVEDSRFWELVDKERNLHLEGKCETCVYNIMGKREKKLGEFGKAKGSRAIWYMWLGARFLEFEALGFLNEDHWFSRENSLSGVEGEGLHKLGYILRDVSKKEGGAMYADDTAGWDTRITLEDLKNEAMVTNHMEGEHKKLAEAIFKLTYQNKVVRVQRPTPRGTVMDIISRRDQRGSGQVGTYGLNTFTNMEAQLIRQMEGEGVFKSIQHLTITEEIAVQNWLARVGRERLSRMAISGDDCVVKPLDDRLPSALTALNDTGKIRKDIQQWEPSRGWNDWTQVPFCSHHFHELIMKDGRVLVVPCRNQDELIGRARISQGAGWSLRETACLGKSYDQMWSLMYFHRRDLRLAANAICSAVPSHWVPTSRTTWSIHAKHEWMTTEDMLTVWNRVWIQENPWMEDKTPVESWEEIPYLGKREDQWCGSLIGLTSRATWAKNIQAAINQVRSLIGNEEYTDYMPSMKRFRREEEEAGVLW

Chain of Voltage-gated inwardly rectifying potassium channel KCNH2 (Q12809 whole entry): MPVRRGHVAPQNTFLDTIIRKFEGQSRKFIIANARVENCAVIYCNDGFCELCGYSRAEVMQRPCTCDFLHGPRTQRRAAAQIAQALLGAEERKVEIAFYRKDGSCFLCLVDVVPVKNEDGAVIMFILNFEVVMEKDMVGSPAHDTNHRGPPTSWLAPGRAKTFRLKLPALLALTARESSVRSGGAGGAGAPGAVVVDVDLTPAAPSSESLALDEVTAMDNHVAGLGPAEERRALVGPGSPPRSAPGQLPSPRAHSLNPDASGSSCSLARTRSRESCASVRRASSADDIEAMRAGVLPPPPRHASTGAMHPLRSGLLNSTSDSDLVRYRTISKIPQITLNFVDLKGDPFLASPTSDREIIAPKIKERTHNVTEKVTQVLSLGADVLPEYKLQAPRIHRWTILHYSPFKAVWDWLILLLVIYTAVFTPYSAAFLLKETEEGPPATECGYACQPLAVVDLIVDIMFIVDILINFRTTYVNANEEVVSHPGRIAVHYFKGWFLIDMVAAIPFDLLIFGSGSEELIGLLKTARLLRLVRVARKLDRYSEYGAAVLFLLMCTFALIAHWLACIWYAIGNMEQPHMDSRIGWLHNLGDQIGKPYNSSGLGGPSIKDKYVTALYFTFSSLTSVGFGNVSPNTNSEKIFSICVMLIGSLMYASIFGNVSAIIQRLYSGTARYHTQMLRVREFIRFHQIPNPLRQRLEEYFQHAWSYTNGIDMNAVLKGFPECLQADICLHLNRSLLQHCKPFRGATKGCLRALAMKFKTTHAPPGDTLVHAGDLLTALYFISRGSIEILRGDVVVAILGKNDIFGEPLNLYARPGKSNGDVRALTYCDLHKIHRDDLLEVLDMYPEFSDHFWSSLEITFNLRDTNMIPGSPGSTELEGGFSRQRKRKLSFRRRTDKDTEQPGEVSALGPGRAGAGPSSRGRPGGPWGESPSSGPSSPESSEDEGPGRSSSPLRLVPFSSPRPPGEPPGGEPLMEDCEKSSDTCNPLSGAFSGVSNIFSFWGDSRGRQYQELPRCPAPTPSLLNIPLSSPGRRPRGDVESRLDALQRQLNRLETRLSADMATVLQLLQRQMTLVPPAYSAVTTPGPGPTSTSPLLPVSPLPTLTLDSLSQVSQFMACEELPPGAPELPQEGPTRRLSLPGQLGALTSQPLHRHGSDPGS
T2 sequence (P49327 whole entry, the tested form may be a part): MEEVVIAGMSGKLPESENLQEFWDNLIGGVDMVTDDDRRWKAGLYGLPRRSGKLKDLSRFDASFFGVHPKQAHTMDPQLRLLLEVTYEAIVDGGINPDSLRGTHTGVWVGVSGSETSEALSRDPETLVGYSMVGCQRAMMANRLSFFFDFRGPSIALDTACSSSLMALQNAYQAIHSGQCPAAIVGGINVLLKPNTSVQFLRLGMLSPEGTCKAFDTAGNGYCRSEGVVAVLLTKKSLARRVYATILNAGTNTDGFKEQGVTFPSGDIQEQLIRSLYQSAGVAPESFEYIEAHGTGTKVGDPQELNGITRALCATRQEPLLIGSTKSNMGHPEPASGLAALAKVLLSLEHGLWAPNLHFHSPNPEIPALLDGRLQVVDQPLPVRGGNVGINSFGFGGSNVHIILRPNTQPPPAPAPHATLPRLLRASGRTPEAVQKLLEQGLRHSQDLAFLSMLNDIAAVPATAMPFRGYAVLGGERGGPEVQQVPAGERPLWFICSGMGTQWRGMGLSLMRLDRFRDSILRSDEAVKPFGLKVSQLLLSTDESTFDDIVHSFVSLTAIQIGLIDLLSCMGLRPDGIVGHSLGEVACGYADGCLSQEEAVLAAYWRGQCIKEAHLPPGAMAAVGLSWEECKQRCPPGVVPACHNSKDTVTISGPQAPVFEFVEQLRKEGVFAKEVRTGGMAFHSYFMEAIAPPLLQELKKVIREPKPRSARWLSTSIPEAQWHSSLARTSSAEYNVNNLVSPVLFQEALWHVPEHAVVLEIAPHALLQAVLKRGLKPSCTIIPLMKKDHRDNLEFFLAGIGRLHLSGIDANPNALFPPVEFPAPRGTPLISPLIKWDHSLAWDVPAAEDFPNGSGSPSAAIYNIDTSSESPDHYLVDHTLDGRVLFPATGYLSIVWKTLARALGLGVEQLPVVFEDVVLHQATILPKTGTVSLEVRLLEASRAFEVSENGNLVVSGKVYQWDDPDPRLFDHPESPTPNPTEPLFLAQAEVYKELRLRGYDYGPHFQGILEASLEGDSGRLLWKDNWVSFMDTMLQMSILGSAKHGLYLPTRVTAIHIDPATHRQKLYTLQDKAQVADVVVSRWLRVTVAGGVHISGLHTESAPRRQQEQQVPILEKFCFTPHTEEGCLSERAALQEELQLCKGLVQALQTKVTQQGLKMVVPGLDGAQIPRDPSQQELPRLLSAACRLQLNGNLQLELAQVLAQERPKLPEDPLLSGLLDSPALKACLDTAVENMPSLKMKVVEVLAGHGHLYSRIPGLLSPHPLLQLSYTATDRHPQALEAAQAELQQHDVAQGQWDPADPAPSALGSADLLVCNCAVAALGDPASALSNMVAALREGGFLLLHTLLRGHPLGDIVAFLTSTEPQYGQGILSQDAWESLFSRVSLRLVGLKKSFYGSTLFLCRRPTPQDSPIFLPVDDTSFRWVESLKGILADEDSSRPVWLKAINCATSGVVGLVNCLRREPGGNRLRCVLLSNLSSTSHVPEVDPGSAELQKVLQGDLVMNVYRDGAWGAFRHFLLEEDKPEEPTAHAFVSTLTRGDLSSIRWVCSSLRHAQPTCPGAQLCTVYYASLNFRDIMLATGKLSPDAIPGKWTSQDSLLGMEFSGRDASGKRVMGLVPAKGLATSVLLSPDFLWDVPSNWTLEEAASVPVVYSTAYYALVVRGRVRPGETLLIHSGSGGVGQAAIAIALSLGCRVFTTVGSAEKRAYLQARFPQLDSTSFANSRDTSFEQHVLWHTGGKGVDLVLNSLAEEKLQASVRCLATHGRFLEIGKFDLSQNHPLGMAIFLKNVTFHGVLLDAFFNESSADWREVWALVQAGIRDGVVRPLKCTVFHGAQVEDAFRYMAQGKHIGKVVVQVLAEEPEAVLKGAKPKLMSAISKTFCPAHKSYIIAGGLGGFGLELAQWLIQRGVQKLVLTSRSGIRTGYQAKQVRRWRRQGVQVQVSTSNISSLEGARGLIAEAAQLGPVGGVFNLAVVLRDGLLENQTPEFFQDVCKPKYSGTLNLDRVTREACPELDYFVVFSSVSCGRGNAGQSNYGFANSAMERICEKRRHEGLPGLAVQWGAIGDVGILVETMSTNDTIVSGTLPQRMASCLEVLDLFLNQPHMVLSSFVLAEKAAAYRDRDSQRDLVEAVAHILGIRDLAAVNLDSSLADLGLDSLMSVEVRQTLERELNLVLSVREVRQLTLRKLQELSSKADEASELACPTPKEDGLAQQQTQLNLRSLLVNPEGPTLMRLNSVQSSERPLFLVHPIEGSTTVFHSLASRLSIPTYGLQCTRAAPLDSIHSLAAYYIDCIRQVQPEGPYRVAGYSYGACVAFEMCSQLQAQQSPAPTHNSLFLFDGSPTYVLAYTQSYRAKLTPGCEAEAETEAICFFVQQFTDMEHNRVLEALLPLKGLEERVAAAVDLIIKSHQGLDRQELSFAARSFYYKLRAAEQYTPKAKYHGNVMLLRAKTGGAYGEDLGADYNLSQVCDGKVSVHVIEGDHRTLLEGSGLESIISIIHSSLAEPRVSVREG

Structure (SMILES): CCn1cnc2c(Nc3cccc(Cl)c3)nc(N[C@@H]3CCCC[C@@H]3N)nc21
AC50 [1]: 17.8 µM (inconclusive)

Structure (SMILES): C[C@H](N)CN1CCc2ccc(Br)cc21
AC50 [1]: 20 µM (inconclusive)

Structure (SMILES): CCOC(=O)C1OC1c1ccccc1 (stereo not given)
AC50 [1]: 35.5 µM (inconclusive)

IC50 (Prothrombin): > 50 µM (not active)
Structure (SMILES): COCCNC(=O)Cn1nc(C(F)(F)F)cc1C

IC50 (Estrogen receptor): > 50 µM (not active)
Structure (SMILES): CCOC(=O)Cc1ccc(NS(=O)(=O)c2ccc(SC)cc2)cc1

Structure (SMILES): Cc1ccc2nc(O)c(-c3nc4ccccn4c3NCc3ccco3)cc2c1
EC50 [2]: 18.7 µM (active)
EC50 [3]: 28.4 µM (active)
IC50 (Estrogen receptor): 25.7 µM (active)

IC50 (Prothrombin): > 50 µM (not active)
IC50 (Fatty acid synthase [4]): 1.44 µM (active)
IC50 (Fatty acid synthase [5]): 1.84 µM (active)
Structure (SMILES): CCOc1ccc(C2CC(=O)N(Nc3ccc([N+](=O)[O-])cc3[N+](=O)[O-])C2=O)cc1 (stereo not given)

Structure (SMILES): Cc1ccc(Nc2cc(C)c3c(O)cccc3n2)cc1C
EC50 [6]: 2.81 µM (active)
AC50 (HeLa): 34.5 µM (active)
EC50 [7]: > 30 µM (not active)

Structure (SMILES): C1=C(c2cc3ccccc3cn2)CCCC1
AC50 (HeLa): 51.3 µM (active)

EC50 [8]: > 260 µM (inactive)
IC50 (Prothrombin): 4.05 µM (active)
Structure (SMILES): Cc1ccc(C(=O)n2cnnc2N)cc1

IC50 (Genome polyprotein): > 100 µM (active)
Structure (SMILES): CCCCC1=CC2=CC(=O)C(C)(OC(=O)CC)C(=O)C2=CN1Cc1ccc(OC)cc1 (stereo not given)

Structure (SMILES): CC(=O)c1ccc(NC(=O)c2noc3c2CCCCC3)cc1
AC50 (HeLa): > 350 µM (inactive)

Structure (SMILES): CC(=O)Nc1c(-c2ccc3ccccc3c2)nc2ccccn12
AC50 (HeLa): 213 µM (active)
